# Measured values published in publication PMC6710338, “Turning a Collagenesis-Inducing Peptide Into a Potent Antibacterial and Antibiofilm Agent Against Multidrug-Resistant Gram-Negative Bacteria” (Frontiers in Microbiology, 2019).
# Like-named read-outs stand apart in the source and are kept apart here. Peptide text beside a SMILES is read from it.
# Experiments:
# [1] = test system: MDR clinical isolates of K. pneumoniae (KP004, KP007, KP010); assay type: cell-based, Klebsiella pneumoniae; conditions: for MIC: MHB2
# Method: (§1) The minimum inhibitory concentration (MIC) of synthetic peptides was determined using the broth microdilution method in cation-adjusted Mueller-Hinton broth (MHB2 – Sigma-Aldrich, St. Louis, MO, United States), according to the recommendations of the Clinical and Laboratory Standards Institute ([CLSI, 2012]), against four reference strains, namely, P. aeruginosa ATCC 27853, E. coli ATCC 25922, S. aureus ATCC 25923 and Enterococcus faecalis ATCC 29212. MIC values of peptide 3.1-PP4 were also determined against MDR clinical isolates of P. aeruginosa (PA002, PA004, Pa3, Pa4), E. coli (Ec1, Ec2, EC001, EC002, EC003) and K. pneumoniae (KP004, KP007, KP010). The peptides were tested in the concentration range of 1–1024 μg/mL. The minimum bactericidal concentration (MBC) was determined as previously reported ([Bessa et al., 2018]).
# In view of the above results, peptide conjugate 3.1-PP4 was selected for further investigation of its activity against MDR isolates of three Gram-negative bacterial species, namely, P. aeruginosa (four isolates), E. coli (five isolates), and K. pneumoniae (four isolates), whose antimicrobial resistance patterns are provided in the Supplementary Table S1. MDR isolates of K. pneumoniae were included in this analysis given (i) the high prevalence of K. pneumoniae in HAI ([Zheng et al., 2017]), (ii) that K. pneumoniae isolates used are carbanepem-resistant strains of an Enterobacteriaceae species, meaning that they are class 1 priority pathogens for the research and development of new antibiotics according to the WHO ([WHO, 2017]), and (iii) K. pneumoniae bacteria are usually better biofilm producers than the other Enterobacteriaceae species used, E. coli ([Reisner et al., 2006]). MIC values obtained are shown in Table 3, and confirm peptide’s 3.1-PP4 potent action against Gram-negative bacteria, including MDR isolates, with a selectivity index (SI), i.e., ratio of IC50 values for mammalian vs. bacterial cells, ranging from ca. 9–69. In fact, for P. aeruginosa and E. coli, MIC against MDR isolates were in the same range, or below, of those previously found for ATCC reference strains (Table 2). For K. pneumoniae, MIC values ranged between 1 and 4 μM, which is remarkable.
# [2] = test system: MDR isolates of P. aeruginosa, E. coli and K. pneumoniae; assay: Minimum bactericidal concentration (MBC); assay type: cell-based; conditions: all MDR isolates tested
# Method: as §1
# In view of the above results, peptide conjugate 3.1-PP4 was selected for further investigation of its activity against MDR isolates of three Gram-negative bacterial species, namely, P. aeruginosa (four isolates), E. coli (five isolates), and K. pneumoniae (four isolates), whose antimicrobial resistance patterns are provided in the Supplementary Table S1. […]
# S. aureus ATCC 25923 = assay: MIC, broth microdilution (CLSI), ATCC reference strain; assay type: cell-based, Staphylococcus aureus
# Method: as §1, with “2018]). According to CLSI guidelines for antimicrobial susceptibility testing, MIC values were determined for all peptides against ATCC reference strains of two Gram-positive (S. aureus ATCC 25923 and E. faecalis ATCC 29212), and two Gram-negative (P. aeruginosa ATCC 27853 and E. coli ATCC 25922) bacterial species, and are shown in Table 2.” for “2018]).”
# [3] = test system: preformed biofilms of MDR P. aeruginosa isolates; assay: Effect on 24 h preformed biofilms (OD600 of planktonic phase); assay type: cell-based, Pseudomonas aeruginosa; conditions: 20 × MIC, vs non-treated biofilm
# Method: The efficacy of peptide 3.1-PP4 on 24 h preformed biofilms of PA002, PA004, KP004, KP007, and KP010 was also evaluated ([Gomes et al., 2014]). Briefly, biofilms were grown in TSB from a starting inoculum of 1 × 10^6 CFU/mL in 96-well microtiter plates. […] The optical density at 600 nm (OD600) was measured at time 0 and after incubation for 24 h at 37°C. The reduction in the biofilm proliferation was calculated in comparison to the respective non-treated biofilms. Two independent experiments were performed in triplicate.
# In the case of control biofilms, the second 24 h growth period occurred in the absence of the peptide. Based on the apparent higher efficiency of peptide 3.1-PP4 to inhibit the formation of K. pneumoniae than P. aeruginosa biofilms, only two MDR isolates of the latter were included in this assay, whereas three MDR K. pneumoniae were tested. Optical density of the planktonic phase, as a measure of biofilm proliferation, was reduced in all peptide-treated biofilms, ranging from 3 to 21% reduction on P. aeruginosa isolates, and from 34 to 56% reduction on K. pneumoniae isolates (Table 4).
smiles,measurement,setting,value
CC(C)C[C@H](NC(=O)[C@H](Cc1c[nH]c2ccccc12)NC(=O)[C@H](CCCCN)NC(=O)[C@H](CC(C)C)NC(=O)[C@H](CC(C)C)NC(=O)[C@H](CCCCN)NC(=O)[C@@H](N)CCCCN)C(=O)N[C@@H](CC(C)C)C(=O)N[C@@H](CCCCN)C(=O)N[C@@H](CC(C)C)C(=O)N[C@@H](CC(C)C)C(=O)N[C@@H](CCCCN)C(=O)N[C@H](C(=O)N[C@H](C(=O)N[C@@H](CCCCN)C(=O)N[C@@H](CO)C(N)=O)[C@@H](C)O)[C@@H](C)O [Peptide 3.1-PP4] (H-KKLLKWLLKLLKTTKS-NH2; N-terminus assumed),MIC,[1]; MDR K. pneumoniae isolate KP004,4 µg/mL
same,MIC,[1]; MDR K. pneumoniae isolate KP007,8 µg/mL
same,MIC,[1]; MDR K. pneumoniae isolate KP010,2 µg/mL
same,MIC values for K. pneumoniae,"[1]; MDR clinical isolates of (KP004, KP007, KP010)",1 to 4 µM
same,minimal bactericidal concentrations (MBC),[2],match the MIC in all cases
same,MIC,S. aureus ATCC 25923; ATCC 25923,16 µM
same,MIC,"S. aureus ATCC 25923; S. aureus ATCC 25923, broth microdilution in MHB2, CLSI, range tested 1–1024 μg/mL",32 µg/mL
same,% reduction in biofilm proliferation upon treatment,"[3]; isolate PA002, 24 h preformed biofilm",2.8%
same,% reduction in biofilm proliferation upon treatment,"[3]; isolate PA004, 24 h preformed biofilm",21%
